According to US20060058372A1, “N-Benzodioxolyl, n-benzodioxanyl and n-benzodioxepinyl arylcarboxamide derivatives and pharmaceutical compositions comprising them” (priority 2002, published 2006):

What was measured:
[1] = test system: apo B secretion in HepG2 cells; assay: Inhibition of apo B secretion in the HepG2 human cell line (sandwich ELISA); format: cell-based; conditions: 24 hours incubation, culture supernatant, ELISA specific for human apo B, read-out: IC50 (concentration that produces a 50% inhibition of apo B secretion in the HepG2 cells)
Experimental: Analysis of the secretion of apo B in the HepG2 human cell line:
The activity of a compound according to the invention can be evaluated by measuring the inhibition of apo B secretion in HepG2 cells.
The HepG2 cells (ECACC—No. 85011430) are used as model in the study of the in vitro hepatic secretion of lipoproteins (Dixon J. and Ginsberg H.-J. Lipid. Res.—1993, 34:167-179).
The HepG2 cells are cultured in Dulbecco's modified Eagle's medium comprising 10% foetal calf serum (DMEM and FBS-Gibco) in 96-well plates under an atmosphere of 5% carbon dioxide for 24 hours (about 70% confluence).
The test compounds are dissolved at a concentration of 2 or 10 mM in dimethyl sulfoxide (DMSO). Serial dilutions (1:3.16) are made in DMSO and are added (1:200—Robot Multimek Beckman) to the growth medium (200 microlitres) and then finally incubated for 24 hours in the various wells containing the HepG2 cells.
The 24-hour culture supernatant diluted to 1:5 (phosphate-buffered saline: PBS comprising 1% bovine serum albumin) is tested according to a sandwich-ELISA method specific for human apo B.
The results are expressed in terms of IC50, i.e. the concentration that produces a 50% inhibition of apo B secretion in the HepG2 cells.

[2] = molecular target: T1, microsomal triglyceride transfer protein (MTP) (Mesocricetus auratus, UniProt P55158); assay: Inhibition of MTP activity: transfer of [3H]-triolein from donor liposomes to biotinylated LDL (SPA); format: biochemical; conditions: MTP from golden hamster liver microsomes; incubation 18-24 hours at 37° C.; read-out: IC50 (concentration that allows a 50% inhibition of MTP)
T1 construct: The supernatant comprising the soluble MTP is dialysed; from tissue; host or cells: golden hamster liver microsomes, deoxycholate-solubilised
T1 sequence (P55158 19-895): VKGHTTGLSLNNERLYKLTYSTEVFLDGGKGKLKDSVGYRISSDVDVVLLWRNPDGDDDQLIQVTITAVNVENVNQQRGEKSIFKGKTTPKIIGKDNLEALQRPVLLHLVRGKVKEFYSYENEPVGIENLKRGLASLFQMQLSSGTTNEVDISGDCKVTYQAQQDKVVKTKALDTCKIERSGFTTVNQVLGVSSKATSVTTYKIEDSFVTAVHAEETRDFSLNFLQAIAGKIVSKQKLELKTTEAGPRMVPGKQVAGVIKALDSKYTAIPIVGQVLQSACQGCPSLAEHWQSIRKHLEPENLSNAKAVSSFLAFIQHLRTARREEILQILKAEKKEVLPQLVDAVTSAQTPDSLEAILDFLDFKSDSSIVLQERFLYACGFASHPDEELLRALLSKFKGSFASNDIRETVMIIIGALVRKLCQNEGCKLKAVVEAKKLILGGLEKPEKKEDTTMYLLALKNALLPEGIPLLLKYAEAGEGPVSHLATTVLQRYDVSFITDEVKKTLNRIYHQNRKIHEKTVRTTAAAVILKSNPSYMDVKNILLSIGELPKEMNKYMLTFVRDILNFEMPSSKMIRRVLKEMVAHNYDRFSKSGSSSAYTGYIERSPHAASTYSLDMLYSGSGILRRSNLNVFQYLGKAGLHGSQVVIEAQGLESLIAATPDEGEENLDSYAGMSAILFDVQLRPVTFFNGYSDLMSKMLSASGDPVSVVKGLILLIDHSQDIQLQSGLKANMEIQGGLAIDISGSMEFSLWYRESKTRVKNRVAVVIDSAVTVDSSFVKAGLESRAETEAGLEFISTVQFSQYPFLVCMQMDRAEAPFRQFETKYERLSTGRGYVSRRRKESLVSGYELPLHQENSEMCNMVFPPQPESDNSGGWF
T1 sequence (Q8R4U2 20-509 partner): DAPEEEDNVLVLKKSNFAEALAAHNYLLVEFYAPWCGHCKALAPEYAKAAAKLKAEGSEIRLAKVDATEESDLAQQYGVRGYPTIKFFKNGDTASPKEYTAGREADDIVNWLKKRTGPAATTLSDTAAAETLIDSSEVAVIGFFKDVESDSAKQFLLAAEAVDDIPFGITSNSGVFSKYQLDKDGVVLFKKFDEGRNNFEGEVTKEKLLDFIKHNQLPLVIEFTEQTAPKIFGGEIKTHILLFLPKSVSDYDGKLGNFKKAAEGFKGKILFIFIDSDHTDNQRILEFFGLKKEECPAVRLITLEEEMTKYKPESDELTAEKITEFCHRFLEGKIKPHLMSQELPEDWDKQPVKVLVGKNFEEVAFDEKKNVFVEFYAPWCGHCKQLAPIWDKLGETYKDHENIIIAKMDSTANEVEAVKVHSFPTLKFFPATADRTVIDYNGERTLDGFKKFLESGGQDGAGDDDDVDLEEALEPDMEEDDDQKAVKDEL
Experimental: Analysis of the Inhibition of MTP Activity
The inhibition of the activity of microsomal triglyceride transfer protein (MTP) was tested by using the following operating protocol.
The inhibition of MTP activity with a compound can be quantified by observing the inhibition of the transfer of a labelled triglyceride, from a donor particle to an acceptor particle, in the presence of MTP. The procedure for the preparation of MTP is based on the method by Wetterau and Zilversmit (Biochem. Biophys. Acta (1986) 875: 610). A few grams of golden hamster liver are taken and then rinsed several times in a 250 mM sucrose solution at 0° C. All the following steps proceed at +4° C. A homogenate at a concentration of 50% in 250 mM sucrose is prepared using a Teflon mill and then centrifuged for 10 minutes at 10 000×g at +4° C. The supernatant is then centrifuged at 105 000×g for 75 minutes at +4° C. The supernatant is discarded and the microsomal pellet is taken up in 3 ml (per g of starting liver) of Tris/HCl 150 mM pH 8.0. 1 ml aliquot fractions are stored at −80° C. until the time of use.
After thawing a fraction of microsomes (1 ml), 12 ml of refrigerated Tris/HCl 50 mM, KCl 50 mM, MgCl2 5 mM pH 7.4 buffers and 1.2 ml of deoxycholate (0.54% in water) are added. After incubation for 30 minutes at +4° C. with gentle agitation, the suspension is centrifuged at 105 000×g for 75 minutes. The supernatant comprising the soluble MTP is dialysed against Tris/HCl 150 mM, NaCl 40 mM, EDTA 1 mM, 0.02% sodium azide pH 7.4 buffer (5 times one litre over 2-3 days). The MTP is stored at +4° C., is stable for at least 30 days and is used in unmodified form in the test.
The donor particles (liposomes) are prepared from 208 μl of L-phosphatidylcholine at a concentration of 10 mg/ml in chloroform, and 480 μl of [3H]-triolein at a concentration of 0.5 mCi/ml in toluene. After stirring, the solution is evaporated under nitrogen, taken up in 6 ml of Tris/HCl 50 mM, KCl 50 mM, MgCl2 5 mM pH 7.4 buffer and incubated in an ultrasound bath for 30 minutes at room temperature. The liposomes are stored at +4° C. and sonicated again for 10 minutes before each use.
The acceptor particles are biotinylated low density lipoproteins (LDL-biot). These particles are supplied by the company Amersham.
The reaction mixture is prepared in untreated ½ well white plates (Corning Costar) by addition, in the following order, of: 5 μl of HEPES 50 mM, NaCl 150 mM, BSA 0.1% (w/v), 0.05% sodium azide (w/v), pH 7.4 buffer; 5 μl of liposomes; 5 μl of LDL-biot; 5 μl of test products in DMSO; 5 μl of MTP. After incubation for 18-24 hours at 37° C., the reaction is stopped by adding 100 μl of Amersham SPA (Scintillation Proximity Assay) beads coupled to streptavidin, and the radioactivity is counted using a Top Count (Packard) at least one hour later. The inhibition of the transfer of the triglycerides with a compound is reflected by a reduction in the transferred radioactivity.
The results are expressed in terms of the IC50, i.e. the concentration that allows a 50% inhibition of MTP.

Compound	IC50 [1]	IC50 [2]
CCNC(=O)OCC1COc2ccc(NC(=O)c3ccccc3-c3ccc(C(C)C)cc3)cc2O1 (stereo not drawn) [Example 21, 7-[(4′-isopropylbiphenyl-2-carbonyl)amino]-2,3-dihydrobenzo[1,4]dioxin-2-ylmethyl ethylcarbamate]	197 nM	–
CCc1ccc(-c2ccccc2C(=O)Nc2ccc3c(c2)OC(F)(F)O3)cc1 [Example 32, 4′-ethylbiphenyl-2-carboxylic acid (2,2-difluorobenzo[1,3]dioxol-5-yl)-amide]	97 nM	–
O=C(Nc1ccc2c(c1)OC(F)(F)O2)c1ccccc1-c1ccc(OC(F)(F)F)cc1 [Example 40, 5-(4′-trifluoromethoxybiphen-2-ylcarbonylamino)-2,2-difluorobenzo[1,3]-dioxole]	–	220 nM
CC(C)c1ccc(-c2ccccc2C(=O)Nc2ccc3c(c2)OCO3)cc1 [Example 41, 5-(4′-isopropylbiphen-2-ylcarbonylamino)benzo[1,3]dioxole]	129 nM	–
CCc1ccc(-c2cccc(C)c2C(=O)Nc2ccc3c(c2)OC(F)(F)O3)cc1 [Example 42, 5-(4′-ethyl-3-methylbiphen-2-ylcarbonylamino)-2,2-difluorobenzo[1,3]-dioxole]	–	270 nM
CCNC(=O)OCCc1ccc(-c2ccccc2C(=O)Nc2ccc3c(c2)OC(F)(F)O3)cc1 [Example 48, 5-(4′-ethylaminocarbonyloxyethylbiphen-2-ylcarbonylamino)-2,2-difluorobenzo[1,3]dioxole]	–	340 nM
Cc1cccc(-c2ccc(OC(F)(F)F)cc2)c1C(=O)Nc1ccc2c(c1)OC(F)(F)O2 [Example 49, 5-(4′-trifluoromethoxy-3-methylbiphen-2-ylcarbonylamino)-2,2-difluorobenzo[1,3]dioxole]	302 nM	136 nM
O=C(Nc1ccc2c(c1)OC(F)(F)O2)c1ccccc1-c1ccc(CCO)cc1 [Example 53, 4′-(2-hydroxyethyl)biphenyl-2-carboxylic acid (2,2-difluorobenzo[1,3]-dioxol-5-yl)amide]	195 nM	–
CC(C)Cc1ccc(-c2ccccc2C(=O)Nc2ccc3c(c2)OC(F)(F)O3)cc1 [Example 57, 4′-isobutylbiphenyl-2-carboxylic acid (2,2-difluorobenzo[1,3]dioxol-5-yl)-amide]	219 nM	–
CC(C)=Cc1ccc(-c2ccccc2C(=O)Nc2ccc3c(c2)OC(F)(F)O3)cc1 [Example 69, 4′-(2-methylpropenyl)biphenyl-2-carboxylic acid (2,2-difluorobenzo[1,3]-dioxol-5-yl)amide]	288 nM	–
O=C(Nc1ccc2c(c1)OC(F)(F)O2)c1cccc(Cl)c1-c1ccc(OC(F)(F)F)cc1 [Example 91]	213 nM	223 nM
CCNC(=O)OCCc1ccc(-c2c(C)cccc2C(=O)Nc2ccc3c(c2)OC(F)(F)O3)cc1 [Example 98]	–	312 nM

Further compounds by falling IC50 [1], results first:

IC50 [1]	IC50 [2]	Compound
72 nM	–	O=C(Nc1ccc2c(c1)OCO2)c1ccccc1-c1ccc(OC(F)(F)F)cc1 [Example 51, 4′-trifluoromethoxybiphenyl-2-carboxylic acid benzo[1,3]dioxol-5-ylamide]
68 nM	230 nM	CC(C)c1ccc(-c2ccccc2C(=O)Nc2ccc3c(c2)OC(F)(F)O3)cc1 [Example 33, (4′-isopropylbiphen-2-yl)-N-(2,2-difluorobenzo[1,3]dioxol-5-yl)carboxamide]
66 nM	193 nM	COc1cccc(C(=O)Nc2ccc3c(c2)OC(F)(F)O3)c1-c1ccc(OC(F)(F)F)cc1 [Example 94]
65 nM	–	COCC1COc2ccc(NC(=O)c3ccccc3-c3ccc(C(C)C)cc3)cc2O1 (stereo not drawn) [Example 20, 4′-isopropylbiphenyl-2-carboxylic acid (3-methoxymethyl-2,3-dihydrobenzo[1,4]dioxin-6-yl)amide]
65 nM	61 nM	Cc1cccc(C(=O)Nc2ccc3c(c2)OC(F)(F)O3)c1-c1ccc(CCOCc2ccccc2)cc1 [Example 93, 4′-(2-benzyloxyethyl)-6-methylbiphenyl-2-carboxylic acid (2,2-difluorobenzo[1,3]dioxol-5-yl)amide]
30 nM	44 nM	CC(C)c1ccc(-c2c(Cl)cccc2C(=O)Nc2ccc3c(c2)OC(F)(F)O3)cc1 [Example 90]
